Series [1] deals with T1, recombinant human PREP (rhPREP) (Homo sapiens, UniProt P48147).
T1 sequence (P48147 1-710): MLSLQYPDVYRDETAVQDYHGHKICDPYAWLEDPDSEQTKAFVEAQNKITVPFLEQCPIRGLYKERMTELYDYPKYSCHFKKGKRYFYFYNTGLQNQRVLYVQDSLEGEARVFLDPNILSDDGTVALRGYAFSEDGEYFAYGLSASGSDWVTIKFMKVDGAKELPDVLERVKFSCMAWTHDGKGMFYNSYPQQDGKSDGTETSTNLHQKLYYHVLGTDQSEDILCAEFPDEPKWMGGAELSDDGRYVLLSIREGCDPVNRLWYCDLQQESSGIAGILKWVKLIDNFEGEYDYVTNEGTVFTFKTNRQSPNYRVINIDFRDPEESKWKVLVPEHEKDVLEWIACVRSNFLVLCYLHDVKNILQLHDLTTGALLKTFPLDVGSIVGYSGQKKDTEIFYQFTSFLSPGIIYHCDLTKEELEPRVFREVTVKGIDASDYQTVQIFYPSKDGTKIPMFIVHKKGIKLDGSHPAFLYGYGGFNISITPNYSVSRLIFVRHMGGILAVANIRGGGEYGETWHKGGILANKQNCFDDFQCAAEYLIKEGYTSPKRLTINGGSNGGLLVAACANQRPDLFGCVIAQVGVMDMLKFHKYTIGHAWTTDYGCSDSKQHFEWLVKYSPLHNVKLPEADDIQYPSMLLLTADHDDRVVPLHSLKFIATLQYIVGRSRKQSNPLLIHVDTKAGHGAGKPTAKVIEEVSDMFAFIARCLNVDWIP
The series is described as follows: PREP enzymatic activity assay, Z-Gly-Pro-AMC. The settings on record: Table 3B. It is filed as biochemical.

Series [2] addresses T2, recombinant human DPP9 (rhDPP9) (Homo sapiens, UniProt Q86TI2).
T2 construct: purchased R&S system / R&D systems (both sic) 5419-SE
The series is described as follows: DPP9 inhibition assay, 10 ng rhDPP9, Tris-HCl/BSA buffer. The settings on record: Table 3B. It is filed as biochemical.

The target in series [3] is T2, recombinant human DPP9 (rhDPP9). The series is described as follows: DPP9 enzymatic activity assay, 40 ng rhDPP9, HEPES buffer. It is filed as biochemical. The settings on record: Table 3A.
In series [4] the target is T3, recombinant human DPPIV (rhDPPIV) (Homo sapiens, UniProt P27487).
T3 construct: purchased R&S system (so in the source)
The series can be described thus: DPPIV enzymatic activity assay, H-Gly-Pro-pNA. It is filed as biochemical.

Series [5] deals with T4, recombinant human FAPα (rhFAPα) (Homo sapiens, UniProt Q12884).
T4 construct: purchased R&S system (so in the source)
T4 sequence (Q12884 1-760): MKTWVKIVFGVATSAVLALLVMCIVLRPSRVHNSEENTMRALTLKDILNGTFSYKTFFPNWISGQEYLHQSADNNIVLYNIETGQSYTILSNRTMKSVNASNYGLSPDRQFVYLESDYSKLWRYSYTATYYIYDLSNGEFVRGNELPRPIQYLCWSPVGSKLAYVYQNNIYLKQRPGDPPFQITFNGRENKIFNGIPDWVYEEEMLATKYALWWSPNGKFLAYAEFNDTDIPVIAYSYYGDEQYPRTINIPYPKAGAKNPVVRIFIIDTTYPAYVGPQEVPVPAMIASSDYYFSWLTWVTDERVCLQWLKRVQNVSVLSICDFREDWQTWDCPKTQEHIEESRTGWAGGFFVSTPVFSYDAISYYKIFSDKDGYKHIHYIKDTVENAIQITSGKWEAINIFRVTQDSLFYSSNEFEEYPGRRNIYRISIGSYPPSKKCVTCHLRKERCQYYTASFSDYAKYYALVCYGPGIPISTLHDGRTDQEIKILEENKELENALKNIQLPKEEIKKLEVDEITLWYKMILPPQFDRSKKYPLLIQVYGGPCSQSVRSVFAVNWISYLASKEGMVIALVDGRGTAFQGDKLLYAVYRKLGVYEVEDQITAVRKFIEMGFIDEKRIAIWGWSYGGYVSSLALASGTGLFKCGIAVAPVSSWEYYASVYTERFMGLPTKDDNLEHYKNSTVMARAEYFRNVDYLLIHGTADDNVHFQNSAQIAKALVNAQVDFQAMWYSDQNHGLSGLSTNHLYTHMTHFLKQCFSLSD
The series can be described thus: FAPα enzymatic exopeptidase (dipeptidase) activity assay, Z-Gly-Pro-AMC. It is filed as biochemical. The settings on record: for inhibition at 1 µM / rhFAPα (% exo inh @ 1 μM): exopeptidase inhibition at 1 μM test compound.

Series [6] deals with human AML cell line MV4-11. The series can be described thus: Cytotoxicity assay in human leukemia cell lines (Cell-Titer Glo). The settings on record: MV4-11, 48 h, read-out: MV4-11 viability IC50, μM.
For the next series, the target named is T5, DPPIV (Mus musculus, UniProt P28843).
T5 construct: from tissue; host or cells: C57BL/6 mouse plasma (EDTA)
The series can be described thus: DPPIV enzymatic activity in mouse plasma (H-Gly-Pro-AMC). It is filed as biochemical, C57BL/6 mouse. The note with it: H-Gly-Pro-AMC substrate. The protocol: Approximately 500 μL of whole blood from one C57BL/6 mouse was harvested into BD Microtainer® tubes (K2) EDTA (#365974, Becton Dickinson and Co.) via terminal cardiac puncture. The blood sample was immediately centrifuged at approximately 9000 g at 4° C. for 5 minutes. Plasma was separated and stored at −80° C. in aliquots of 300 μL. To assay baseline DPPIV enzymatic exopeptidase activity, 5 μL of thawed, mouse plasma was diluted (1:5) in buffer (100 mM Tris-HCl, 400 mM NaCl, 50 mM salicylic acid, 1 mM EDTA, pH 7.5) and mixed with 35 μL of the same buffer before being pre-incubated with different concentrations of 10 μL of test compounds or DMSO vehicle for 15 minutes at 37° C. in 96-well black plates (Nunc, #237108). After pre-incubation, 50 μL of 200 μM dipeptide substrate H-Gly-Pro-AMC (Bachem, # L-1225) was added to the mixture. The assay was performed for 1 hour at 37° C. 7-Amino-4-Methylcoumarin (AMC) release was detected measuring fluorescence at an excitation wavelength of 360 nm and an emission wavelength of 460 nm using a Multifunction Microplate Reader (Synergy 4, Biotek). All measurements were carried out at least in duplicate.

For series [7] the following is noted: upon standing in pH 7.8; cyclization (Narra et al., 2007); cited from earlier work.
[8] abbreviates: Table 3B, read-out: rhFAPα % exo inh @ 1 μM.

Like-named read-outs stand apart in the source and are kept apart here.

T2 sequence (Q86TI2 whole entry): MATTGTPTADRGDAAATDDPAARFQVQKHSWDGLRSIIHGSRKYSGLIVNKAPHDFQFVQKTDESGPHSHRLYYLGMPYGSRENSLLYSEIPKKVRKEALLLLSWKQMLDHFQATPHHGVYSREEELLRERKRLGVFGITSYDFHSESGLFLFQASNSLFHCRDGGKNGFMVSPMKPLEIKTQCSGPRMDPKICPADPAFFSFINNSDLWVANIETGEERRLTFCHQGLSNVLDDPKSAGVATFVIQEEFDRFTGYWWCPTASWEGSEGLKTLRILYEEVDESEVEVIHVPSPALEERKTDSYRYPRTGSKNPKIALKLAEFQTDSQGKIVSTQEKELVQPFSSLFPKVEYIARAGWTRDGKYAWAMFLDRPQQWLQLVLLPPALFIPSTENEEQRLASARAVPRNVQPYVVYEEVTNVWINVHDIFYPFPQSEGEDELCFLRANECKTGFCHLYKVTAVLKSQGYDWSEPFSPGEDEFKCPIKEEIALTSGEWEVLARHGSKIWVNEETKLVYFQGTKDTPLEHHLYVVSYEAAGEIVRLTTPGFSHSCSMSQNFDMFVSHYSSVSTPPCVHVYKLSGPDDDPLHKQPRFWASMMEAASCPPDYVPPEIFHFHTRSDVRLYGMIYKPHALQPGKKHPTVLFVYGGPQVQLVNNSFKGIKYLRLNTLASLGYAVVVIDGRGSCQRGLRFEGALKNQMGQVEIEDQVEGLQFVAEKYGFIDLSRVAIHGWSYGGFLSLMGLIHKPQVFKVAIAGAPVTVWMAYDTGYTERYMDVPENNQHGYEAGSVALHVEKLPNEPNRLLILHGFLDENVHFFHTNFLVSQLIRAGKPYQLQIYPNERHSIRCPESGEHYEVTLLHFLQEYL
T3 sequence (P27487 whole entry): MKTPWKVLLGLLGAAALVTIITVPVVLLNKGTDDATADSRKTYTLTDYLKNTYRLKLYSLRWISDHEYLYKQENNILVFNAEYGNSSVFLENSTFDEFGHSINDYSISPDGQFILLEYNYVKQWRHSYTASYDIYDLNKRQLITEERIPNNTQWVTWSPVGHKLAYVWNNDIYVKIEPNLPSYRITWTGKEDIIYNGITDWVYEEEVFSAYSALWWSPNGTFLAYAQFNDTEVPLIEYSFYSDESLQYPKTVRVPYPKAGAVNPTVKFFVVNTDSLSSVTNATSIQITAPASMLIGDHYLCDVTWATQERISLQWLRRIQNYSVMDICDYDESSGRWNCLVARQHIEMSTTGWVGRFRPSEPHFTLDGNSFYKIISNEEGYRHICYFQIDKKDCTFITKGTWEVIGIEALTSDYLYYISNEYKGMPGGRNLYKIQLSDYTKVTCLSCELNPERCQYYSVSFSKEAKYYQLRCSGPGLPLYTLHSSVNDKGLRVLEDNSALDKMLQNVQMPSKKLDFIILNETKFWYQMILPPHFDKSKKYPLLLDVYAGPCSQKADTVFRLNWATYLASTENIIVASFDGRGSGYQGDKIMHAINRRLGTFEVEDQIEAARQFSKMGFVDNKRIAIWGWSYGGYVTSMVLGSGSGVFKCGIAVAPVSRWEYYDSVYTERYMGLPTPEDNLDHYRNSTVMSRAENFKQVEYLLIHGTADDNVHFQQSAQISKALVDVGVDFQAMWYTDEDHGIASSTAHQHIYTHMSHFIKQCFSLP
T5 sequence (P28843 37-760 limits assumed): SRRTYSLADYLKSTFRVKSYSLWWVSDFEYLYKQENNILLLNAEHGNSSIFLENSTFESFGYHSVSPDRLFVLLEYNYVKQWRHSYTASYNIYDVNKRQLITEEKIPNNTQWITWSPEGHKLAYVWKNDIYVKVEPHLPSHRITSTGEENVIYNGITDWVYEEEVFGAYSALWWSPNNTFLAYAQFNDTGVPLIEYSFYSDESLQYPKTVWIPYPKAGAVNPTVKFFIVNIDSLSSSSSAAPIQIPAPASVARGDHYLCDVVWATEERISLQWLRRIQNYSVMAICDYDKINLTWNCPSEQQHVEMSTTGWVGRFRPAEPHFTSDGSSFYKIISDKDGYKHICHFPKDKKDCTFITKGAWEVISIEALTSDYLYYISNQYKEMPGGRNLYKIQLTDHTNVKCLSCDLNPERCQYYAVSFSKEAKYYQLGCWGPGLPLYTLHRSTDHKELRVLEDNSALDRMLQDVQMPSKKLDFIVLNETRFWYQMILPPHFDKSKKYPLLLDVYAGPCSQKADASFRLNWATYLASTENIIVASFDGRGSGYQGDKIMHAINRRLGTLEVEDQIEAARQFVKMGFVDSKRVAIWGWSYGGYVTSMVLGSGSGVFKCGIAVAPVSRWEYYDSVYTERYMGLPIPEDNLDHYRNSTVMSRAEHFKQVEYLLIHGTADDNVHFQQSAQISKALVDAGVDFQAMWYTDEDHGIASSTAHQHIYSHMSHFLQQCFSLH

For the molecule `C=C(Cc1cnccc1C(=O)NCC(=O)N1CC(F)(F)C[C@H]1C#N)c1ccc(F)cc1` [Compound 14, (S)—N-(2-(2-cyano-4,4-difluoropyrrolidin-1-yl)-2-oxoethyl)-3-(2-(4-fluorophenyl)allyl)isonicotinamide], the IC50 was 1 to 10 µM in series [1]; 1000 to 10000 nM in series [2]; 1 to 10 µM in series [3]; greater than 10 µM in series [4] (Table 3A); greater than 10 µM in series [4] (Table 3B); less than 1000 nM in series [5] (Table 3B, read-out: rhFAP IC50). In addition, the IC50 in series [5] (exopeptidase, Table 2, read-out: rhFAPα (exo IC50)) was less than 1000 nM; in series [5] (exopeptidase, Table 3A, read-out: rhFAPα (exo IC50)), less than 1000 nM. Besides, the inhibition at 1 µM in series [5] (Table 2, read-out: rhFAPα (% exo inh @ 1 μM)) is greater than 50%; in series [5] (setting [8]), greater than 50%.

Consider `COc1ccc(/C=C/c2cnccc2C(=O)NCC(=O)N2CC(F)(F)C[C@H]2C#N)cc1` [Compound 15], for which the IC50 in series [1] was greater than 10 µM; in series [2], less than 1000 nM; in series [6] it was greater than 10 µM; in series [4] (Table 3B) it was greater than 10 µM; in series [5] (Table 3B, read-out: rhFAP IC50), less than 1000 nM. In series [5] (setting [8]), the inhibition at 1 µM is greater than 50%.

Regarding `N#C[C@@H]1CC(F)(F)CN1C(=O)CNC(=O)c1ccnc2ccc(/C=C/c3ccc(Cl)cc3)cc12` [Compound 34], the IC50 in series [1] was greater than 10 µM; in series [2], less than 1000 nM; in series [6], less than 3 µM; in series [4] (Table 3B) it was greater than 10 µM; in series [5] (Table 3B, read-out: rhFAP IC50), less than 1000 nM. Besides, the inhibition at 1 µM in series [5] (setting [8]) is greater than 50%.

Regarding `N#C[C@@H]1CC(F)(F)CN1C(=O)CNC(=O)c1ccncc1/C=C/c1ccc2cc(Cl)ccc2c1` [Compound 40], the IC50 in series [1] was greater than 10 µM; in series [2], less than 1000 nM; in series [6] it was 3 to 10 µM; in series [4] (Table 3B), 1 to 10 µM; in series [5] (Table 3B, read-out: rhFAP IC50), less than 1000 nM. Besides, the inhibition at 1 µM in series [5] (setting [8]) was greater than 50%.

As to `COc1ccc(C#Cc2ccc3nccc(C(=O)NCC(=O)N4CC(F)(F)C[C@H]4C#N)c3c2)cc1` [Compound 41], the IC50 was greater than 10 µM in series [1]; less than 1000 nM in series [2]; greater than 10 µM in series [6]; greater than 10 µM in series [4] (Table 3B); less than 1000 nM in series [5] (Table 3B, read-out: rhFAP IC50). Further, the inhibition at 1 µM in series [5] (setting [8]) was greater than 50%.

For the molecule `N#C[C@@H]1CC(F)(F)CN1C(=O)CNC(=O)c1ccnc2ccc(/C=C/c3ccc(F)cc3)cc12` [Compound 44], the IC50 was greater than 10 µM in series [1]; less than 1000 nM in series [2]; less than 3 µM in series [6]; greater than 10 µM in series [4] (Table 3B); less than 1000 nM in series [5] (Table 3B, read-out: rhFAP IC50). Also, in series [5] (setting [8]), the inhibition at 1 µM was greater than 50%.

Turning to `Cc1ccc(/C=C/c2ccc3nccc(C(=O)NCC(=O)N4CC(F)(F)C[C@H]4C#N)c3c2)cn1` [Compound 45], the IC50 in series [1] was greater than 10 µM; in series [2], less than 1000 nM; in series [6] it was 3 to 10 µM; in series [4] (Table 3B) it was greater than 10 µM; in series [5] (Table 3B, read-out: rhFAP IC50) it was less than 1000 nM. The inhibition at 1 µM in series [5] (setting [8]) was greater than 50%.

Regarding `N#C[C@@H]1CC(F)(F)CN1C(=O)CNC(=O)c1ccnc2ccc(/C=C/c3ccc(C(F)(F)F)nc3)cc12` [Compound 46], the IC50 is greater than 10 µM in series [1]; less than 1000 nM in series [2]; less than 3 µM in series [6]; greater than 10 µM in series [4] (Table 3B); less than 1000 nM in series [5] (Table 3B, read-out: rhFAP IC50). Besides, the inhibition at 1 µM in series [5] (setting [8]) is greater than 50%.

For the molecule `COc1ccc(/C=C/c2ccc3nccc(C(=O)NCC(=O)N4CC(F)(F)C[C@H]4C#N)c3c2)cc1` [Compound 47], the IC50 in series [1] is greater than 10 µM; in series [2], less than 1000 nM; in series [6], 3 to 10 µM; in series [4] (Table 3B), greater than 10 µM; in series [5] (Table 3B, read-out: rhFAP IC50), less than 1000 nM. Besides, the inhibition at 1 µM in series [5] (setting [8]) was greater than 50%.

Take `N#C[C@@H]1CC(F)(F)CN1C(=O)CNC(=O)c1ccnc2ccc(/C=C/c3ccc(O)nc3)cc12` [Compound 139]: the IC50 was greater than 10 µM in series [1]; less than 1000 nM in series [2]; greater than 10 µM in series [6]; greater than 10 µM in series [4] (Table 3B); less than 1000 nM in series [5] (Table 3B, read-out: rhFAP IC50). In addition, the inhibition at 1 µM in series [5] (setting [8]) was greater than 50%.

Regarding `Cc1cc(/C=C/c2ccc3nccc(C(=O)NCC(=O)N4CC(F)(F)C[C@H]4C#N)c3c2)ccn1` [Compound 192], the half-maximal inhibitory concentration (IC50) is greater than 10 µM in series [1]; less than 1000 nM in series [2]; less than 3 µM in series [6]; 1 to 10 µM in series [4] (Table 3B); less than 1000 nM in series [5] (Table 3B, read-out: rhFAP IC50). Besides, in series [5] (setting [8]), the inhibition at 1 µM was greater than 50%.

In the case of `COc1cc(/C=C/c2ccc3nccc(C(=O)NCC(=O)N4CC(F)(F)C[C@H]4C#N)c3c2)ccn1` [Compound 193], the IC50 in series [1] was greater than 10 µM; in series [2], less than 1000 nM; in series [6], less than 3 µM; in series [4] (Table 3B), greater than 10 µM; in series [5] (Table 3B, read-out: rhFAP IC50) it was less than 1000 nM. In addition, the inhibition at 1 µM in series [5] (setting [8]) was greater than 50%.

As for `N#C[C@@H]1CC(F)(F)CN1C(=O)CNC(=O)c1ccnc2ccc(/C=C/c3ccnc(C(F)(F)F)c3)cc12` [Compound 194], the IC50 in series [1] is greater than 10 µM; in series [2], less than 1000 nM; in series [6] it was less than 3 µM; in series [4] (Table 3B), 1 to 10 µM; in series [5] (Table 3B, read-out: rhFAP IC50), less than 1000 nM. In addition, the inhibition at 1 µM in series [5] (setting [8]) is greater than 50%.

For `N#CC1CC(F)(F)CN1C(=O)CNC(=O)c1ccnc2ccccc12` (stereo not drawn) [Ref. Comp., reference compound], the IC50 at DPPIV is less than 10 µM. Moreover, the “rhFAPα (% exo inh @ 1 μM)” value in series [5] (Table 2) and in series [5] (Table 3B) was “+++ (+++ refers to >50% inhibition at 1 μM test compound)” throughout.

For the molecule `CC(C)[C@H](N)C(=O)N1CCC[C@H]1B(O)O` [Val-boroPro, reference compound], in series [6], the concentration for half-maximal inhibition (IC50) was less than 3 µM. Further, the “stability of protease inhibitory activity” value in series [7] is “rapidly loses protease inhibitory activity”.

The record behind these values is patent publication US20200216417A1, “INHIBITORS OF FIBROBLAST ACTIVATION PROTEIN” (Praxis Biotech LLC, priority 2019, published 2020).
